# Experimental data taken from patent US20260344670A1, “BIXLOZONE MIXTURES WITH PETHOXAMID” (FMC CORPORATION, priority 2022, published 2026).
# Tests used:
# Format in all cases: in vivo
# VERPE = test: pre-emergence control of VERPE in corn (efficacy, Colby synergy)
# Description: (§1) Table 11. Synergy data of various forms and mixtures of bixlozone and pethoxamid after pre-emergence application on corn at the crop row closure stage (BBCH 18). The notations in parentheses show the forms and amounts (in g/ha) of applied bixlozone and pethoxamid, respectively. Where “tank” is noted, the mix is a tank mix. Where “premix” is noted, the mix is a premix. Where there is no notation, the value shown is the Colby calculation for the expected value from separate mixtures.
# (§2) Various forms, compositions, and mixtures of bixlozone and pethoxamid were applied to corn before emergence. […] Mixtures of bixlozone with 800 g/ha pethoxamid improved weed spectrum on a range of broad leaf weeds (e.g., CHEAL and ABUTH) and grasses (e.g., ECHCG, DIGSA, and SETVI). Combinations of bixlozone and pethoxamid in pre-emergence applications were very safe with no clear pethoxamid rate effect.
# (§3) Table 12. Efficacies of various forms and mixtures of bixlozone and pethoxamid after pre-emergence application on corn. Weeds were present at ≥5 pl/m^2. Concentrations are shown in parentheses in g/ha.
# Various forms, compositions, and mixtures of bixlozone and pethoxamid were applied to corn before emergence. […] Mixtures of bixlozone with 300 g/ha pethoxamid improved weed spectrum on a range of broad leaf weeds (e.g., SOLNI and ABUTH). […]
# Setaria viridis (SETVI) = test: pre-emergence control of SETVI in corn (efficacy, Colby synergy)
# Description: (§4) [formula] • where ppm=milligrams of active ingredient (=a.i.) per liter of spray mixture X=% action by component A using p ppm of active ingredient Y=% action by component B using q ppm of active ingredient. If the ratio R defined as the action actually observed (O) divided by the expected action (E) is >1 then the action of the combination is superadditive, i.e. there is a synergistic effect. For a more detailed description of the Colby formula, see Colby, S. R. “Calculating Synergistic and Antagonistic Responses of Herbicide Combination”, Weeds, Vol. 15, pages 20-22; 1967; see also Limpel et al., Proc. NEWCC 16:48-53 (1962).
# (§5) As used herein, rating timings correspond to the following: A1=weed assessment at BBCH 11-12; A2=4 weeks after the application; A3=when ZEAMX crop reaches BBCH 18 (row closure); and A4=BBCH 51-59 of the ZEAMX crop.
# (§6) The herbicidal compounds bixlozone and pethoxamid were applied in a variety of forms and at a variety of amounts, application rates, and normalities. Efficacy of the herbicidal compositions was evaluated with reference to a scale of 0% to 100% in comparison with untreated control plots. 0 means no damage to the harmful plants and 100 means complete destruction of the harmful plants. Plants per square meter is indicated by “pl/m^2”, and grams per hectare is indicated by “g/ha”. The acronym “EC” means emulsifiable concentrate (a liquid, homogenous formulation to be applied as an emulsion after dilution with water); “SC” means suspension concentrate (a stable suspension of active ingredient(s) with water as the fluid); “ZC” refers to a mixed formulation of CS and SC (a stable suspension of capsules and active ingredient(s) in a fluid, normally intended for dilution with water before use).
# (§7) Various forms, compositions, and mixtures of bixlozone and pethoxamid were applied to corn before emergence. […] There was equivalent efficacy for fixed rate of bixlozone combined with pethoxamid: 1200 or 900 g/ha. Efficacy was reduced when bixlozone rate decreased from 250 to 150 g/ha. […]
# [1] = system: Acalypha virginica (ACCVI); test: pre-emergence control of ACCVI in corn (Colby synergy)
# Description: as §4
# (§8) The herbicidal compounds bixlozone and pethoxamid were applied in a variety of forms and at a variety of amounts, application rates, and normalities. Efficacy of the herbicidal compositions was evaluated with reference to a scale of 0% to 100% in comparison with untreated control plots. 0 means no damage to the harmful plants and 100 means complete destruction of the harmful plants. Plants per square meter is indicated by “pl/m^2”, and grams per hectare is indicated by “g/ha”. […]
# DAUCA = test: pre-emergence control of DAUCA in corn (efficacy, Colby synergy); settings: bixlozone 375, pethoxamid 300, mixtures 375 + 300 g/ha
# Description: as §1
# as §2, with “300” for “800”, “SOLNI” for “CHEAL”, “ABUTH).” for “ABUTH) and grasses (e.g., ECHCG, DIGSA, and SETVI).”
# Table 13. Efficacies of various forms and mixtures of bixlozone and pethoxamid after pre-emergence application on corn. Weeds were present at ≥5 pl/m^2. Concentrations are shown in parentheses in g/ha.
# [2] = system: Panicum dichotomiflorum (PANDI); test: pre-emergence control of PANDI in corn (Colby synergy)
# Description: as §4, §6
# as §2, with “1200” for “800”, “CHEAL, MATSS,” for “CHEAL”, “POLSS)” for “ABUTH)”
# [3] = system: Persicaria lapathifolia (POLLA); test: pre-emergence control of POLLA in corn (efficacy, Colby synergy)
# Description: as §4, §5, §6, §7
# Lamium purpureum (LAMPU) = test: pre-emergence control of LAMPU in corn (efficacy, Colby synergy); settings: bixlozone 375, pethoxamid 300, mixtures 375 + 300 g/ha
# Description: as §4, §5, §8
# AMBEL = test: pre-emergence control of AMBEL in corn (efficacy); settings: bixlozone 375, pethoxamid 1200, mixtures 375 + 1200 g/ha
# Description: as §2, with “1200” for “800”, “CHEAL, MATSS,” for “CHEAL”, “POLSS)” for “ABUTH)”
# Table 8. Efficacies of various forms and mixtures of bixlozone and pethoxamid after pre-emergence application on corn. Weeds were present at ≥5 pl/m^2. Concentrations are shown in parentheses in g/ha.
# [4] = system: Mercurialis annua (MERAN); test: pre-emergence control of MERAN in corn (efficacy, Colby synergy)
# Description: as §4, §5, §6, §7
# [5] = system: Matricaria chamomilla (MATCH); test: pre-emergence control of MATCH in corn (efficacy, Colby synergy)
# Description: as §4, §5, §6, §7
# [6] = system: Abutilon theophrasti (ABUTH); test: pre-emergence control of ABUTH in corn (efficacy, Colby synergy)
# Description: as §4, §5, §6, §7
# [7] = system: Xanthium strumarium (XANST); test: pre-emergence control of XANST in corn (efficacy, Colby synergy); settings: bixlozone 375, pethoxamid 300, mixtures 375 + 300 g/ha
# Description: as §4, §5, §8
# FUMOF = test: pre-emergence control of FUMOF in corn (efficacy, Colby synergy); settings: bixlozone 375, pethoxamid 800, tank mix 375 + 800, premix 375 + 775 g/ha
# Description: Table 10. Synergy data of various forms and mixtures of bixlozone and pethoxamid after pre-emergence application on corn at the crop row closure stage (BBCH 18). […] The notations in parentheses show the forms and amounts (in g/ha) of applied bixlozone and pethoxamid, respectively. Where “tank” is noted, the mix is a tank mix. Where “premix” is noted, the mix is a premix. Where there is no notation, the value shown is the Colby calculation for the expected value from separate mixtures.
# as §2, §3
# [8] = system: Amaranthus retroflexus (AMARE); test: pre-emergence control of AMARE in corn (efficacy, Colby synergy)
# Description: as §4, §5, §8
# [9] = system: Tripleurospermum inodorum (MATIN); test: pre-emergence control of MATIN in corn (Colby synergy)
# Description: as §4, §8
# POLHY = test: pre-emergence control of POLHY in corn (efficacy); settings: bixlozone 375, pethoxamid 800, tank mix 375 + 800, premix 375 + 775 g/ha
# Description: as §2, §3
# Stellaria media (STEME) = test: pre-emergence control of STEME in corn (efficacy, Colby synergy); settings: bixlozone 375, pethoxamid 800, tank mix 375 + 800, premix 375 + 775 g/ha
# Description: as §4, §5, §8
# [10] = bixlozone 375, pethoxamid 300, mixtures 375 + 300 g/ha
# [11] = bixlozone 375, pethoxamid 800, tank mix 375 + 800, premix 375 + 775 g/ha
# [12] = bixlozone 375, pethoxamid 1200, mixtures 375 + 1200 g/ha
smiles,measurement,setting,value
CCOCCN(C(=O)CCl)C(=C(C)C)c1ccccc1 [pethoxamid],Efficacy,VERPE; [10],46.3
same,Efficacy,VERPE; [11],54.4
same,Efficacy,Setaria viridis (SETVI); [10],30
same,Efficacy,Setaria viridis (SETVI); [11],81
same,Efficacy,Setaria viridis (SETVI); [12],52.1
same,Efficacy,[1]; [10],65
same,Efficacy,[1]; [12],46.3
same,Efficacy,DAUCA,83
same,Efficacy,[2]; [10],68.8
same,Efficacy,[2]; [11],71.3
same,Efficacy,[2]; [12],84.8
same,Efficacy,[3]; [10],42.2
same,Efficacy,[3]; [11],49.3
same,Efficacy,[3]; [12],87.8
same,Efficacy,Lamium purpureum (LAMPU),62.5
same,Efficacy,AMBEL,7.5
same,Efficacy,[4]; [10],36.3
same,Efficacy,[4]; [11],16.9
same,Efficacy,[4]; [12],48.6
same,Efficacy,[5]; [10],90
same,Efficacy,[5]; [11],100
same,Efficacy,[5]; [12],77.5
same,Efficacy,[6]; [10],42.5
same,Efficacy,[6]; [11],38.9
same,Efficacy,[6]; [12],56.3
same,Efficacy,[7],35
same,Efficacy,FUMOF,12.5
same,Efficacy,[8]; [11],50.4
same,Efficacy,[8]; [12],57.5
same,Efficacy,[9]; [10],50
same,Efficacy,[9]; [12],100
same,Efficacy,POLHY,92.5
same,Efficacy,Stellaria media (STEME),91
